Test results as given in US12343332B2, “Treatment of a bacterial vaginal infection” (Adamed Pharma S.A., priority 2017, dated 2025).
Converted amounts (≈) assume the structure as drawn. “Also recorded” adds a separate entry of the source. Like-named read-outs stand apart in the source and are kept apart here.

How the values were obtained:
Format in all cases: cell-based
[1] = test system: Atopobium vaginae ATCC BAA 55; experiment: MIC, macro dilution method for bacteria in a solid medium; conditions: for MIC: Fannyhessea vaginae, BAA55, 168 h, read-out: MIC value; for antibacterial activity (in words): against Atopobium vaginae
Protocol: (§1) Strains used in the study were Gardnerella vaginalis ATCC 14018, Atopobium vaginae ATCC BAA 55, Candida albicans ATCC 90028, and Candida [NT] 2001. […] To perform the assay, a pure, 48-hour strain reference culture was used, from which a bacterial suspension with a density of 1.0 McFarland in sterile saline was prepared. The suspension was plated onto Schaedler agar medium supplemented with 5% sheep blood (Becton Dickinson) and a test compound at the appropriate concentration. After incubation, the value MIC was read. Colony growth on the plate indicated no activity of the test compound at tested concentration. As the MIC value, the last lowest concentration as taken, at which there was no microbial growth. [table]

[2] = test system: Gardnerella vaginalis ATCC 14018; experiment: as above; conditions: for MIC: Gardnerella vaginalis, ATCC14018, 72 h, read-out: MIC value; for antibacterial activity (in words): against Gardnerella vaginalis
Protocol: as §1

[3] = test system: Atopobium vaginae ATCC BAA 55; experiment: Synergistic action at 2-fold lower concentrations than MIC, solid medium; conditions: for Synergy with Metronidazole / Synergy with Nystatin: Atopobium vaginae ATCC BAA 55, Furazidin 0.03 mg/L, Nitrofurantoin 0.98 mg/L, Nifuratel 1.95 mg/L; for Synergy with Metronidazole: Metronidazole 0.5 mg/L; for Synergy with Nystatin: Nystatin 250 mg/L; for synergistic effects with metronidazole (in words): against Atopobium vaginae
Protocol: (§2) To perform the assay, a pure, 48-hour strain reference culture was used, from which a bacterial suspension with a density of 1.0 McFarland in sterile saline was prepared. The suspension was plated onto Schaedler agar medium supplemented with 5% sheep blood (Becton Dickinson) and a test compound at the appropriate concentration. After incubation, the value MIC was read. Colony growth on the plate indicated no activity of the test compound at tested concentration. As the MIC value, the last lowest concentration as taken, at which there was no microbial growth. […] Lack of bacterial growth on the plate was interpreted as a synergic action. [table]

[4] = test system: Gardnerella vaginalis ATCC 14018; experiment: as above; conditions: for Synergy with Metronidazole / Synergy with Nystatin: Gardnerella vaginalis ATCC 14018, Furazidin 0.25 mg/L, Nitrofurantoin 0.5 mg/L, Nifuratel 0.98 mg/L; for Synergy with Metronidazole: Metronidazole 125 mg/L; for Synergy with Nystatin: Nystatin 250 mg/L; for synergistic effects with metronidazole (in words): against Gardnerella vaginalis
Protocol: as §2

[5] = test system: Candida glabrata ATCC 2001; experiment: MIC, macro dilution method for yeast-like fungi in a liquid medium; conditions: for MIC: Nakaseomyces glabratus, read-out: MIC value
Protocol: (§3) Strains used in the study were Gardnerella vaginalis ATCC 14018, Atopobium vaginae ATCC BAA 55, Candida albicans ATCC 90028, and Candida [NT] 2001. […] Liquid medium RPMI 1640 (Sigma-Aldrich) was used for fungi of the species Candida albicans ATCC 90028, and Candida [NT] 2001, in which 15 serial dilution were prepared in a range 500 μg/mL-0.03 μg/mL. From a pure 24-hour culture on Sabouraud solid medium, a fungal suspension having density of 0.5 McFarland in sterile saline. Next, the suspension was diluted, and was introduced into the RPMI 1640 medium yielding final concentrations of fungi 10^5 CFU/mL. Incubation was carried out for 24 hours in aerobic conditions in 37° C. Colony growth on the plate indicated no activity of the test compound at tested concentration. As the MIC value, the last lowest concentration as taken, at which there was no microbial growth

[6] = test system: Candida albicans ATCC 90028; experiment: as above; conditions: for MIC: read-out: MIC value
Protocol: as §3

[7] = test system: Candida glabrata ATCC 2001; experiment: Synergistic action at 2-fold lower concentrations than MIC, liquid medium; conditions: for Synergy with Metronidazole / Synergy with Nystatin: Candida glabrata ATCC 2001, each nitrofuran 250 mg/L; for Synergy with Metronidazole: Metronidazole 125 mg/L; for Synergy with Nystatin: Nystatin 0.98 mg/L
Protocol: (§4) Liquid medium RPMI 1640 (Sigma-Aldrich) was used for fungi of the species Candida albicans ATCC 90028, and Candida [NT] 2001, in which 15 serial dilution were prepared in a range 500 μg/mL-0.03 μg/mL. From a pure 24-hour culture on Sabouraud solid medium, a fungal suspension having density of 0.5 McFarland in sterile saline. Next, the suspension was diluted, and was introduced into the RPMI 1640 medium yielding final concentrations of fungi 10^5 CFU/mL. Incubation was carried out for 24 hours in aerobic conditions in 37° C. Colony growth on the plate indicated no activity of the test compound at tested concentration. As the MIC value, the last lowest concentration as taken, at which there was no microbial growth […] Lack of fungal growth on the plate was interpreted as a synergic action.

[8] = test system: Candida albicans ATCC 90028; experiment: as above; conditions: for Synergy with Metronidazole / Synergy with Nystatin: Candida albicans ATCC 90028, each nitrofuran 250 mg/L; for Synergy with Metronidazole: Metronidazole 250 mg/L; for Synergy with Nystatin: Nystatin 0.98 mg/L
Protocol: as §4

[9] = Atopobium vaginae ATCC BAA 55, Schaedler agar, anaerobic, 37° C., 7 days
[10] = Gardnerella vaginalis ATCC 14018, Schaedler agar, microaerophilic, 37° C., 72 hours
[11] = ATCC2001, Candida glabrata ATCC 2001, RPMI 1640, 24 hours, aerobic, 37° C.
[12] = ATCC90028, Candida albicans ATCC 90028, RPMI 1640, 24 hours, aerobic, 37° C.
[13] = Candida glabrata ATCC 2001, RPMI 1640, 24 hours, aerobic, 37° C.
[14] = Candida albicans ATCC 90028, RPMI 1640, 24 hours, aerobic, 37° C.

Structure (SMILES) | antibacterial activity (in words) [1] | antibacterial activity (in words) [2] | Synergy with Metronidazole [3] | Synergy with Nystatin [3] | Synergy with Metronidazole [4] | Synergy with Nystatin [4] | Synergy with Metronidazole [7] | Synergy with Nystatin [7] | Synergy with Metronidazole [8] | Synergy with Nystatin [8] | MIC value [1, 9] [µg/mL] | MIC [1, 9] [µg/mL] | MIC value [2, 10] [µg/mL] | MIC [2, 10] [µg/mL] | MIC [5, 11] [µg/mL] | MIC [6, 12] [µg/mL] | synergistic effects with metronidazole (in words) [3] | synergistic effects with metronidazole (in words) [4] | MIC value [5, 13] [µg/mL] | MIC value [6, 14] [µg/mL] | further results
CSCC1CN(/N=C/c2ccc([N+](=O)[O-])o2)C(=O)O1 (stereo not shown) [Nifuratel] | antibacterial activity | antibacterial activity | − | + | − | + | + | − | + | − |  |  |  |  |  |  |  |  |  |  | MIC [1]: 3.9 µg/mL (≈ 13.7 µM); MIC [2]: 1.95 µg/mL (≈ 6.84 µM); MIC ([5]; ATCC2001, 24 h): 500 µg/mL (≈ 1750 µM); MIC ([6]; Candida albicans, ATCC90028, 24 h): > 500 µg/mL
CCC[C@@H]1C[C@@H](C(=O)N[C@@H]([C@H]2O[C@H](SC)[C@H](O)[C@@H](O)[C@H]2O)[C@H](C)Cl)N(C)C1 [Clindamycin] |  |  |  |  |  |  |  |  |  |  | <0.03 | < 0.03 | 1.95 (≈ 4.59 µM) | < 1.95 |  |  |  |  |  |  | 
Cc1ncc([N+](=O)[O-])n1CCO [Metronidazol, Metronidazole] | antibacterial activity | antibacterial activity |  |  |  |  |  |  |  |  |  | 0.98 (≈ 5.73 µM) |  | 250 (≈ 1460 µM) | 250 (≈ 1460 µM) | 500 (≈ 2920 µM) |  |  |  |  | 
O=C1CN(/N=C/c2ccc([N+](=O)[O-])o2)C(=O)N1 [Nitrofurantion, Nitrofurantoin] | antibacterial activity | antibacterial activity | + | + | + | + | + | − | + | − | 1.95 (≈ 8.19 µM) |  | 0.98 (≈ 4.11 µM) |  |  |  | synergistic effects | synergistic effects | 500 (≈ 2100 µM) | 500 (≈ 2100 µM) | 
O=C1CN(/N=C/C=C/c2ccc([N+](=O)[O-])o2)C(=O)N1 [Furazidin] | highest antibacterial activity in the group of nitrofuran derivatives | highest antibacterial activity in the group of nitrofuran derivatives | + | + | + | + | + | + | + | − | <0.03 | < 0.03 | 0.49 (≈ 1.85 µM) | < 0.49 | 500 (≈ 1890 µM) | 500 (≈ 1890 µM) | synergy; also recorded: synergistic effects | synergy; also recorded: synergistic effects |  |  | synergistic effects with nystatin (in words) ([3]; on Atopobium vaginae): synergistic effect; synergistic effects with nystatin (in words) ([4]; on Gardnerella vaginalis): synergistic effect; synergistic effects with metronidazole (in words) ([7]; against Candida glabrata): synergy; synergistic effects with nystatin (in words) ([7]; against Candida glabrata): synergistic effects; synergistic effects with metronidazole (in words) ([8]; against Candida albicans): synergy
C[C@@H]1[C@H](O)[C@@H](C)/C=C/C=C/CC/C=C/C=C/C=C/C=C/C(O[C@H]2O[C@H](C)[C@@H](O)[C@H](N)[C@@H]2O)CC2O[C@](O)(CC(O)C(O)CCC(O)CC(O)CC(O)CC(=O)O[C@H]1C)CC(O)C2C(=O)O (stereo partly shown) [Nystatin] |  |  |  |  |  |  |  |  |  |  | 500 (≈ 540 µM) |  | 500 (≈ 540 µM) |  |  |  |  |  | 1.98 (≈ 2.14 µM) | 1.98 (≈ 2.14 µM) | 
